The nature of data set [1]: Bi-directional Caco-2 permeability. In kind it is in vitro ADME. To be noted: human; for efflux ratio at 90 min: Caco-2, read-out: BA/AB Ratio; for Papp A→B at 90 min: Caco-2, apical to basolateral, read-out: AB Papp (cm/sec × 10^6); for Papp A→B at 90 min / Papp B→A at 90 min: 37 C, up to 90 minutes; for Papp B→A at 90 min: Caco-2, basolateral to apical, read-out: BA Papp (cm/sec × 10^6). On the procedure:
Bi-directional Caco-2 permeability was assayed. Caco-2 cells were seeded onto permeable polycarbonate supports and allowed to differentiate for about 3 weeks prior to being used in the assays. The cells were then exposed to the compounds from either the apical or basolateral sides and incubated at 37 C for up to 90 minutes under light agitation. Compound transport was then measured using LC/MS/MS analysis at 30, 60, and 90 minutes.

Data set [2] has as its system WI-38 cells (AID negative). Nature of the data set: Primary screening cell killing assay repeated in WI-38 cells (AID negative). The class given is cell-based. The following applies: Homo sapiens, 168 h, cell death on Day 7, Cell-Titer Glo. As for the experimental part:
Primary screening was a phenotypic screen that utilized the synthetic lethal interaction between AID and RAD51 to identify compounds that were both potent and on target. AID expressing cells are dependent upon RAD51 for survival; inhibiting RAD51 in AID positive cells results in a cytotoxic effect.
Percent cell death and EC50 values were calculated by comparing the cell viability of the compound treated wells to the non-treated wells. Normalized RLU values were obtained by subtracting the media well values from each of the wells in the same column, and then dividing that value by the DMSO treated cells values. The percent kill was then calculated by subtracting the normalized RLU value from 1 and multiplying by 100. The average normalized percent kill value and standard error of the mean was then calculated. The kill values were then inputted into Prism with the corresponding standard errors. In Prism a non-linear regression line was plotted with the data points using a semi-log scale, and the EC50 value was calculated.

For data set [3], the system named is Daudi cell line (AID positive). Nature of the data set: Primary screening cell killing assay, Daudi cell line (AID positive). The following applies: Homo sapiens, 168 h, cell death on Day 7, Cell-Titer Glo. In kind it is cell-based. In a few lines:
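AID-positive Daudi cells, 1250 per well, were exposed to serially diluted compounds for 7 days at 37° C. Viability read by CellTiter-Glo luminescence; percent cell death and EC50 derived against untreated wells after media-blank subtraction.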

Setting [4] is: Caco-2, Caco-2, AB direction, read-out: AB Recovery %.
Setting [5] is: Caco-2, Caco-2, BA direction, read-out: BA Recovery %.

Molecules are shown by their SMILES. pEC50: −log10 of the molar value. Where two headings read alike, the source gives them in different places.

For the molecule `CC(C)OC(=O)N[C@@H]1CC[C@@H](c2ncc(-c3ccc(NC(=O)NCc4ccccc4)cc3S(=O)(=O)NC(C)(C)C)s2)NC1` [Ex. 64, isopropyl ((3R,6S)-6-(5-(4-(3-benzylureido)-2-(N-(tert-butyl)sulfamoyl)phenyl)thiazol-2-yl)piperidin-3-yl)carbamate], the recovery at 90 min in data set [1] (setting [4]) worked out at 79.7%. For the same molecule, in data set [1] (setting [5]), the recovery at 90 min was 95.9%. Besides, in data set [1], the efflux ratio at 90 min is 12.5, the Papp A→B at 90 min is 2.2 ×10⁻⁶ cm/s and the Papp B→A at 90 min stood at 27.4 ×10⁻⁶ cm/s. The molecule also had a negative-log EC50 (pEC50) in data set [2] below 6.00. The molecule also gave a pEC50 in data set [3] of at least 7.00.
Regarding `C[C@H](NC(=O)Nc1ccc(-c2cnc(C3CCC(NC(=O)OC4COC4)CC3)s2)c(S(=O)(=O)NC(C)(C)C)c1)c1ccccc1F` (stereo partly drawn) [Ex. 55, oxetan-3-yl ((1S,4r)-4-(5-(2-(N-(tert-butyl)sulfamoyl)-4-(3-((S)-1-(2-fluorophenyl)ethyl)ureido)phenyl)thiazol-2-yl)cyclohexyl)carbamate], the recovery at 90 min in data set [1] (setting [4]) was found to be 65.2%. Besides, the recovery at 90 min in data set [1] (setting [5]) was 83.8%. Further, in data set [1], the efflux ratio at 90 min came to 1.1, the Papp A→B at 90 min was found to be 6.5 ×10⁻⁶ cm/s and the Papp B→A at 90 min was found to be 7 ×10⁻⁶ cm/s. Besides, the negative logarithm of the EC50 (pEC50) in data set [2] is below 6.00. Also, the pEC50 in data set [3] was at least 7.00.
On to `CC(C)OC(=O)Nc1ccc(-c2cnc([C@@H]3CC[C@@H](NC(=O)OC(C)C)CO3)s2)c(S(=O)(=O)NC(C)(C)C)c1` [Ex. 60A], for which the recovery at 90 min was determined as 55.3% in data set [1] (setting [4]) and 86% in data set [1] (setting [5]). The efflux ratio at 90 min in data set [1] amounted to 0.9. Further, in data set [1], the Papp A→B at 90 min worked out at 12 ×10⁻⁶ cm/s. The Papp B→A at 90 min in data set [1] amounted to 11.2 ×10⁻⁶ cm/s. The pEC50 in data set [2] and in data set [3] was below 6.00 each time.
As to `CC(C)(C)NS(=O)(=O)c1cc(NC(=O)NCc2ccccn2)ccc1-c1cnc(C2CCC(NC(=O)OC3COC3)CC2)s1` (stereo not drawn) [Ex. 50, oxetan-3-yl ((1r,4r)-4-(5-(2-(N-(tert-butyl)sulfamoyl)-4-(3-(pyridin-2-ylmethyl)ureido)phenyl)thiazol-2-yl)cyclohexyl)carbamate], in data set [1] (setting [4]), the recovery at 90 min was 87.7%. Also, in data set [1] (setting [5]), the recovery at 90 min was found to be 98.1%. Also, in data set [1], the efflux ratio at 90 min was determined as 14.6, the Papp A→B at 90 min came out at 2 ×10⁻⁶ cm/s and the Papp B→A at 90 min turned out to be 29.1 ×10⁻⁶ cm/s. In data set [2], the negative logarithm of the EC50 (pEC50) was below 6.00. Besides, the pEC50 in data set [3] is at least 7.00.
`C[C@H](NC(=O)Nc1ccc(-c2cnc(C3CCC(NC(=O)OC4COC4)CC3)s2)c(S(=O)(=O)NC(C)(C)C)c1)c1ccccc1` (stereo partly drawn) [Ex. 51, oxetan-3-yl ((1S,4r)-4-(5-(2-(N-(tert-butyl)sulfamoyl)-4-(3-((S)-1-phenylethyl)ureido)phenyl)thiazol-2-yl)cyclohexyl)carbamate]: the recovery at 90 min in data set [1] (setting [4]) was determined as 65%. Besides, in data set [1] (setting [5]), the recovery at 90 min turned out to be 85.7%. For the same molecule, in data set [1], the efflux ratio at 90 min amounted to 1.1, the Papp A→B at 90 min was determined as 9.9 ×10⁻⁶ cm/s and the Papp B→A at 90 min was 10.5 ×10⁻⁶ cm/s. The same molecule had a negative logarithm of the EC50 (pEC50) in data set [2] below 6.00. This molecule also showed a negative-log EC50 (pEC50) in data set [3] of at least 7.00.
Consider `CC(C)OC(=O)N[C@@H]1CC[C@@H](c2ncc(-c3ccc(NC(=O)NCc4ccccc4)cc3S(=O)(=O)NC(C)(C)C)s2)OC1` [Ex. 59A], for which the figures for the recovery at 90 min in data set [1] (setting [4]) and in data set [1] (setting [5]) were 55.6% and 85.5%, respectively. For the same molecule, the efflux ratio at 90 min in data set [1] turned out to be 3.1. Also, in data set [1], the Papp A→B at 90 min worked out at 3.1 ×10⁻⁶ cm/s. Also, the Papp B→A at 90 min in data set [1] was found to be 9.6 ×10⁻⁶ cm/s. Besides, the negative logarithm of the EC50 (pEC50) in data set [2] was below 6.00; in data set [3], 6.00 to 7.00.
On to `CC(C)OC(=O)Nc1ccc(-c2sc(C3CCC(NC(=O)OC(C)C)CC3)nc2F)c(S(=O)(=O)NC(C)(C)C)c1` (stereo not drawn) [Ex. 58, isopropyl ((1r,4r)-4-(5-(2-(N-(tert-butyl)sulfamoyl)-4-((isopropoxycarbonyl)amino)phenyl)-4-fluorothiazol-2-yl)cyclohexyl)carbamate], for which the figures for the recovery at 90 min in data set [1] (setting [4]) and in data set [1] (setting [5]) were 52.3% and 83.5%, respectively. Moreover, in data set [1], the efflux ratio at 90 min is 0.7. Also, in data set [1], the Papp A→B at 90 min was determined as 5.1 ×10⁻⁶ cm/s. For the same molecule, the Papp B→A at 90 min in data set [1] turned out to be 3.4 ×10⁻⁶ cm/s. Further, the pEC50 was below 6.00 in data set [2] and 6.00 to 7.00 in data set [3].
Turning to `CC(C)OC(=O)Nc1ccc(-c2cnc(C34CCC(NC(=O)OC(C)C)(CC3)CC4)s2)c(S(=O)(=O)NC(C)(C)C)c1` [Ex. 17, isopropyl N-[3-(tert-butylsulfamoyl)-4-[2-[4-(isopropoxycarbonylamino)-1-bicyclo[2.2.2]octanyl]thiazol-5-yl]phenyl]carbamate], the recovery at 90 min in data set [1] (setting [4]) stood at 47.2%. Also, the recovery at 90 min in data set [1] (setting [5]) is 81.9%. Further, in data set [1], the efflux ratio at 90 min was 0.8, the Papp A→B at 90 min is 2.8 ×10⁻⁶ cm/s and the Papp B→A at 90 min was found to be 2.1 ×10⁻⁶ cm/s. The same molecule had a pEC50 in data set [2] below 6.00. This molecule also gave a pEC50 in data set [3] of 6.00 to 7.00.
Consider `CC(C)OC(=O)N[C@H]1CC[C@H](c2ncc(-c3ccc(NC(=O)NCc4cccc(F)c4)cc3S(=O)(=O)NC(C)(C)C)s2)CC1` [Ex. 27, isopropyl ((1r,4r)-4-(5-(2-(N-(tert-butyl)sulfamoyl)-4-(3-(3-fluorobenzyl)ureido)phenyl)thiazol-2-yl)cyclohexyl)carbamate], for which the recovery at 90 min in data set [1] (setting [4]) was 92%. Also, the recovery at 90 min in data set [1] (setting [5]) was found to be 107%. For the same molecule, in data set [1], the efflux ratio at 90 min stood at 0.7, the Papp A→B at 90 min came to 0.7 ×10⁻⁶ cm/s and the Papp B→A at 90 min worked out at 0.5 ×10⁻⁶ cm/s. In data set [2], this molecule had a pEC50 below 6.00. Also, the pEC50 in data set [3] is at least 7.00.
Take `CC(C)OC(=O)NC1CCC(c2ncc(-c3ccc(NC(=O)OC4COC4)cc3S(=O)(=O)NC(C)(C)C)s2)CC1` (stereo not drawn) [Ex. 38, isopropyl ((1r,4r)-4-(5-(2-(N-(tert-butyl)sulfamoyl)-4-(((oxetan-3-yloxy)carbonyl)amino)phenyl)thiazol-2-yl)cyclohexyl)carbamate]: in data set [1] (setting [4]), the recovery at 90 min was 73.3%. The recovery at 90 min in data set [1] (setting [5]) is 82.3%. Also, in data set [1], the efflux ratio at 90 min is 1.3, the Papp A→B at 90 min stood at 17.9 ×10⁻⁶ cm/s and the Papp B→A at 90 min came out at 22.9 ×10⁻⁶ cm/s. Besides, the pEC50 in data set [2] is below 6.00. The molecule also showed a negative-log EC50 (pEC50) in data set [3] of at least 7.00.
For the molecule `CC(C)OC(=O)NC12CCC(c3ncc(-c4ccc(NC(=O)NCc5ccccc5)cc4S(=O)(=O)NC(C)(C)C)s3)(CC1)CC2` [Ex. 18, isopropyl (4-(5-(4-(3-benzylureido)-2-(N-(tert-butyl)sulfamoyl)phenyl)thiazol-2-yl)bicyclo[2.2.2]octan-1-yl)carbamate], the pEC50 in data set [2] was below 6.00; in data set [3], at least 7.00.
As for `CC(C)OC(=O)N[C@H]1CC[C@H](c2ncc(-c3ccc(NC(=O)NCc4ccc(O)cc4)cc3S(=O)(=O)NC(C)(C)C)s2)CC1` [Ex. 73, trans-isopropyl N-[4-[5-[2-(tert-butylsulfamoyl)-4-[(4-hydroxyphenyl)methylcarbamoylamino]phenyl]thiazol-2-yl]cyclohexyl]carbamate], the pEC50 is below 6.00 in data set [2] and at least 7.00 in data set [3].
Turning to `CC(C)NC(=O)OC12CCC(c3ncc(-c4ccc(NC(=O)NCc5ccccn5)cc4S(=O)(=O)NC(C)(C)C)s3)(CC1)CC2` [Ex. 62, 4-(5-(2-(N-(tert-butyl)sulfamoyl)-4-(3-(pyridin-2-ylmethyl)ureido)phenyl)thiazol-2-yl)bicyclo[2.2.2]octan-1-yl isopropylcarbamate], the pEC50 in data set [2] and in data set [3] was below 6.00 in each case.
Take `CC(C)OC(=O)N1CCC(c2ncc(-c3ccc(NC(=O)NCc4ccccn4)cc3S(=O)(=O)NC(C)(C)C)s2)CC1` [Ex. 4, isopropyl 4-[5-[2-(tert-butylsulfamoyl)-4-(2-pyridylmethylcarbamoylamino)phenyl]thiazol-2-yl]piperidine-1-carboxylate]: the negative logarithm of the EC50 (pEC50) in data set [2] and in data set [3] was below 6.00 in each case.
Regarding `CC(C)OC(=O)N[C@H]1CC[C@H](c2ncc(-c3ccc(NC(=O)N[C@@H](C)c4ccccc4)cc3S(=O)(=O)NC(C)(C)C)s2)CC1` [Ex. 26, isopropyl ((1S,4r)-4-(5-(2-(N-(tert-butyl)sulfamoyl)-4-(3-((S)-1-phenylethyl)ureido)phenyl)thiazol-2-yl)cyclohexyl)carbamate], the pEC50 in data set [2] is below 6.00; in data set [3], at least 7.00.
As for `CC(C)OC(=O)NC1CCC(c2ncc(-c3ccc(NC(=O)O[C@@H](C)c4ccccc4)cc3S(=O)(=O)NC(C)(C)C)s2)CC1` (stereo partly drawn) [Ex. 41, (S)-1-phenylethyl (3-(N-(tert-butyl)sulfamoyl)-4-(2-((1r,4S)-4-((isopropoxycarbonyl)amino)cyclohexyl)thiazol-5-yl)phenyl)carbamate], the values for the negative logarithm of the EC50 (pEC50) in data set [2] and in data set [3] were below 6.00 and at least 7.00, respectively.
For `CC(C)(C)NS(=O)(=O)c1cc(NC(=O)OC2COC2)ccc1-c1cnc([C@H]2CC[C@H](NC(=O)OC3COC3)CC2)s1` [Ex. 49, trans-oxetan-3-yl N-[3-(tert-butylsulfamoyl)-4-[2-[4-(oxetan-3-yloxycarbonylamino)cyclohexyl]thiazol-5-yl]phenyl]carbamate], the negative-log EC50 (pEC50) is below 6.00 in data set [2] and 6.00 to 7.00 in data set [3].
